# Where “and” joins values, the source holds several entries; their conditions need not be identical. Identical values can stand only once.
# Test system: DU-4475
# Experiment: drug sensitivity score (DSS), CellTiter-Blue viability (DSS (AUC-based score)); higher = stronger viability inhibition; extreme values may be limits of the assay
# Details: incubation time: 72 h
# Description: (§1)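 DSRT with the CellTiter-Blue (resazurin reduction) viability readout, fluorescence 560/590 nm, 72 h incubation. Plates were normalised to DMSO and benzethonium chloride controls. DSS is computed from the area under the fitted dose-response curve (5 or 9 concentrations).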
row,Compound,drug sensitivity score
1,Cc1ccc(-c2cc(C(F)(F)F)nn2-c2ccc(S(N)(=O)=O)cc2)cc1 [Celecoxib],0
2,COc1cc2c(Oc3ccc4[nH]c(C)cc4c3F)ncnc2cc1OCCCN1CCCC1 [Cediranib],0
3,Nc1nc2[nH]cc(CCc3ccc(C(=O)N[C@@H](CCC(=O)O)C(=O)O)cc3)c2c(=O)[nH]1 [Pemetrexed],0
4,C[C@H]1C[C@@H]2[C@H]([C@@H](O)C[C@@]3(C)[C@H]2CC[C@]3(O)C(=O)CO)[C@@]2(C)C=CC(=O)C=C12 [Methylprednisolone],0
5,COc1cc([C@@H]2c3cc4c(cc3[C@@H](O[C@@H]3O[C@@H]5CO[C@@H](c6cccs6)O[C@H]5[C@H](O)[C@H]3O)[C@H]3COC(=O)[C@H]23)OCO4)cc(OC)c1O [Teniposide],28

# Test system: HCC1143
# Experiment: as above
# Details: incubation time: 72 h
# Description: as §1
row,Compound,drug sensitivity score
1,N#Cc1ccc(C(c2ccc(C#N)cc2)n2cncn2)cc1 [Letrozole],0
2,CCCS(=O)(=O)Nc1ccc(F)c(C(=O)c2c[nH]c3ncc(-c4ccc(Cl)cc4)cc23)c1F [Vemurafenib],0
3,O=C(O)C(=O)O.[NH-][C@@H]1CCCC[C@H]1[NH-].[Pt+2] [Oxaliplatin],1.68
4,CCN(CC)CCCC(C)Nc1c2ccc(Cl)cc2nc2ccc(OC)cc12 (centres undefined) [Mepacrine],3.86 and 1.45
5,Cc1ccc(-c2cc(C(F)(F)F)nn2-c2ccc(S(N)(=O)=O)cc2)cc1 [Celecoxib],0
6,COc1cc2c(Oc3ccc4[nH]c(C)cc4c3F)ncnc2cc1OCCCN1CCCC1 [Cediranib],0
7,Nc1nc2[nH]cc(CCc3ccc(C(=O)N[C@@H](CCC(=O)O)C(=O)O)cc3)c2c(=O)[nH]1 [Pemetrexed],3.58
8,C[C@H]1C[C@@H]2[C@H]([C@@H](O)C[C@@]3(C)[C@H]2CC[C@]3(O)C(=O)CO)[C@@]2(C)C=CC(=O)C=C12 [Methylprednisolone],0
9,COc1cc([C@@H]2c3cc4c(cc3[C@@H](O[C@@H]3O[C@@H]5CO[C@@H](c6cccs6)O[C@H]5[C@H](O)[C@H]3O)[C@H]3COC(=O)[C@H]23)OCO4)cc(OC)c1O [Teniposide],11.7

# Test system: HCC1599
# Experiment: as above
# Details: incubation time: 72 h
# Description: as §1
row,Compound,drug sensitivity score
1,N#Cc1ccc(C(c2ccc(C#N)cc2)n2cncn2)cc1 [Letrozole],3.7
2,CCCS(=O)(=O)Nc1ccc(F)c(C(=O)c2c[nH]c3ncc(-c4ccc(Cl)cc4)cc23)c1F [Vemurafenib],0
3,O=C(O)C(=O)O.[NH-][C@@H]1CCCC[C@H]1[NH-].[Pt+2] [Oxaliplatin],2.34
4,CCN(CC)CCCC(C)Nc1c2ccc(Cl)cc2nc2ccc(OC)cc12 (centres undefined) [Mepacrine],5.6 and 4.64
5,Cc1ccc(-c2cc(C(F)(F)F)nn2-c2ccc(S(N)(=O)=O)cc2)cc1 [Celecoxib],0
6,COc1cc2c(Oc3ccc4[nH]c(C)cc4c3F)ncnc2cc1OCCCN1CCCC1 [Cediranib],0
7,Nc1nc2[nH]cc(CCc3ccc(C(=O)N[C@@H](CCC(=O)O)C(=O)O)cc3)c2c(=O)[nH]1 [Pemetrexed],0
8,C[C@H]1C[C@@H]2[C@H]([C@@H](O)C[C@@]3(C)[C@H]2CC[C@]3(O)C(=O)CO)[C@@]2(C)C=CC(=O)C=C12 [Methylprednisolone],0
9,COc1cc([C@@H]2c3cc4c(cc3[C@@H](O[C@@H]3O[C@@H]5CO[C@@H](c6cccs6)O[C@H]5[C@H](O)[C@H]3O)[C@H]3COC(=O)[C@H]23)OCO4)cc(OC)c1O [Teniposide],8.13

# Test system: HCC1937
# Experiment: as above
# Details: incubation time: 72 h
# Description: as §1
row,Compound,drug sensitivity score
1,N#Cc1ccc(C(c2ccc(C#N)cc2)n2cncn2)cc1 [Letrozole],1.74
2,CCCS(=O)(=O)Nc1ccc(F)c(C(=O)c2c[nH]c3ncc(-c4ccc(Cl)cc4)cc23)c1F [Vemurafenib],0.544
3,O=C(O)C(=O)O.[NH-][C@@H]1CCCC[C@H]1[NH-].[Pt+2] [Oxaliplatin],3.82
4,CCN(CC)CCCC(C)Nc1c2ccc(Cl)cc2nc2ccc(OC)cc12 (centres undefined) [Mepacrine],9 and 9.95
5,Cc1ccc(-c2cc(C(F)(F)F)nn2-c2ccc(S(N)(=O)=O)cc2)cc1 [Celecoxib],2.89
6,COc1cc2c(Oc3ccc4[nH]c(C)cc4c3F)ncnc2cc1OCCCN1CCCC1 [Cediranib],0
7,Nc1nc2[nH]cc(CCc3ccc(C(=O)N[C@@H](CCC(=O)O)C(=O)O)cc3)c2c(=O)[nH]1 [Pemetrexed],0
8,C[C@H]1C[C@@H]2[C@H]([C@@H](O)C[C@@]3(C)[C@H]2CC[C@]3(O)C(=O)CO)[C@@]2(C)C=CC(=O)C=C12 [Methylprednisolone],0
9,COc1cc([C@@H]2c3cc4c(cc3[C@@H](O[C@@H]3O[C@@H]5CO[C@@H](c6cccs6)O[C@H]5[C@H](O)[C@H]3O)[C@H]3COC(=O)[C@H]23)OCO4)cc(OC)c1O [Teniposide],19.7

# Test system: HDQ-P1
# Experiment: as above
# Details: incubation time: 72 h
# Description: as §1
row,Compound,drug sensitivity score
1,N#Cc1ccc(C(c2ccc(C#N)cc2)n2cncn2)cc1 [Letrozole],0
2,CCCS(=O)(=O)Nc1ccc(F)c(C(=O)c2c[nH]c3ncc(-c4ccc(Cl)cc4)cc23)c1F [Vemurafenib],1.56
3,O=C(O)C(=O)O.[NH-][C@@H]1CCCC[C@H]1[NH-].[Pt+2] [Oxaliplatin],0
4,CCN(CC)CCCC(C)Nc1c2ccc(Cl)cc2nc2ccc(OC)cc12 (centres undefined) [Mepacrine],6.58 and 6.72
5,Cc1ccc(-c2cc(C(F)(F)F)nn2-c2ccc(S(N)(=O)=O)cc2)cc1 [Celecoxib],4.34
6,COc1cc2c(Oc3ccc4[nH]c(C)cc4c3F)ncnc2cc1OCCCN1CCCC1 [Cediranib],0
7,Nc1nc2[nH]cc(CCc3ccc(C(=O)N[C@@H](CCC(=O)O)C(=O)O)cc3)c2c(=O)[nH]1 [Pemetrexed],0
8,C[C@H]1C[C@@H]2[C@H]([C@@H](O)C[C@@]3(C)[C@H]2CC[C@]3(O)C(=O)CO)[C@@]2(C)C=CC(=O)C=C12 [Methylprednisolone],0
9,COc1cc([C@@H]2c3cc4c(cc3[C@@H](O[C@@H]3O[C@@H]5CO[C@@H](c6cccs6)O[C@H]5[C@H](O)[C@H]3O)[C@H]3COC(=O)[C@H]23)OCO4)cc(OC)c1O [Teniposide],4.07

# Test system: Hs578T
# Experiment: as above
# Details: incubation time: 72 h
# Description: as §1
row,Compound,drug sensitivity score
1,N#Cc1ccc(C(c2ccc(C#N)cc2)n2cncn2)cc1 [Letrozole],0
2,CCCS(=O)(=O)Nc1ccc(F)c(C(=O)c2c[nH]c3ncc(-c4ccc(Cl)cc4)cc23)c1F [Vemurafenib],1.04
3,O=C(O)C(=O)O.[NH-][C@@H]1CCCC[C@H]1[NH-].[Pt+2] [Oxaliplatin],0
4,CCN(CC)CCCC(C)Nc1c2ccc(Cl)cc2nc2ccc(OC)cc12 (centres undefined) [Mepacrine],2.46 and 1.85
5,Cc1ccc(-c2cc(C(F)(F)F)nn2-c2ccc(S(N)(=O)=O)cc2)cc1 [Celecoxib],0
6,COc1cc2c(Oc3ccc4[nH]c(C)cc4c3F)ncnc2cc1OCCCN1CCCC1 [Cediranib],0
7,Nc1nc2[nH]cc(CCc3ccc(C(=O)N[C@@H](CCC(=O)O)C(=O)O)cc3)c2c(=O)[nH]1 [Pemetrexed],0
8,C[C@H]1C[C@@H]2[C@H]([C@@H](O)C[C@@]3(C)[C@H]2CC[C@]3(O)C(=O)CO)[C@@]2(C)C=CC(=O)C=C12 [Methylprednisolone],0
9,COc1cc([C@@H]2c3cc4c(cc3[C@@H](O[C@@H]3O[C@@H]5CO[C@@H](c6cccs6)O[C@H]5[C@H](O)[C@H]3O)[C@H]3COC(=O)[C@H]23)OCO4)cc(OC)c1O [Teniposide],4.64

# Test system: MDA-MB-231
# Experiment: as above
# Details: incubation time: 72 h
# Description: as §1
row,Compound,drug sensitivity score
1,N#Cc1ccc(C(c2ccc(C#N)cc2)n2cncn2)cc1 [Letrozole],0
2,CCCS(=O)(=O)Nc1ccc(F)c(C(=O)c2c[nH]c3ncc(-c4ccc(Cl)cc4)cc23)c1F [Vemurafenib],0
3,O=C(O)C(=O)O.[NH-][C@@H]1CCCC[C@H]1[NH-].[Pt+2] [Oxaliplatin],0
4,CCN(CC)CCCC(C)Nc1c2ccc(Cl)cc2nc2ccc(OC)cc12 (centres undefined) [Mepacrine],8.94 and 9.12
5,Cc1ccc(-c2cc(C(F)(F)F)nn2-c2ccc(S(N)(=O)=O)cc2)cc1 [Celecoxib],0
6,COc1cc2c(Oc3ccc4[nH]c(C)cc4c3F)ncnc2cc1OCCCN1CCCC1 [Cediranib],0
7,Nc1nc2[nH]cc(CCc3ccc(C(=O)N[C@@H](CCC(=O)O)C(=O)O)cc3)c2c(=O)[nH]1 [Pemetrexed],0
8,C[C@H]1C[C@@H]2[C@H]([C@@H](O)C[C@@]3(C)[C@H]2CC[C@]3(O)C(=O)CO)[C@@]2(C)C=CC(=O)C=C12 [Methylprednisolone],0
9,COc1cc([C@@H]2c3cc4c(cc3[C@@H](O[C@@H]3O[C@@H]5CO[C@@H](c6cccs6)O[C@H]5[C@H](O)[C@H]3O)[C@H]3COC(=O)[C@H]23)OCO4)cc(OC)c1O [Teniposide],7.47

# — the supplement of paper PMC4862054
